The text below walks through data of ChEMBL document CHEMBL1141515, “2-(1H-Imidazol-4-yl)ethanamine and 2-(1H-pyrazol-1-yl)ethanamine side chain variants of the IGF-1R inhibitor BMS-536924” (Bioorg Med Chem Lett, 2008).

Data set [1] deals with T1, Insulin-like growth factor 1 receptor (Homo sapiens, UniProt P08069). As to the kind of experiment: Inhibition of IGF1R.
Data set [2] concerns the target T1, Insulin-like growth factor 1 receptor. As to the kind of experiment: Inhibition of IGF1R expressed in SAL cells. It counts as cell-based.
The subject of data set [3] is Mus musculus. As to the kind of experiment: AUC (0 to 4h) in mouse at 20 mg/kg, po. It counts as ADME, organism-based, Plasma. Details: time < 4 hr, dose 20 mg/kg, route oral. Conditions: in vivo.
Data set [4] has as its system Serum. As to the kind of experiment: Protein binding in human serum. It counts as ADME, cell-free.
Data set [5] in a line: Protein binding in mouse serum. The settings on record: read-out: PB. It counts as ADME, cell-free.

Each structure is given as a SMILES string.

T1 sequence (P08069 31-736 limits assumed): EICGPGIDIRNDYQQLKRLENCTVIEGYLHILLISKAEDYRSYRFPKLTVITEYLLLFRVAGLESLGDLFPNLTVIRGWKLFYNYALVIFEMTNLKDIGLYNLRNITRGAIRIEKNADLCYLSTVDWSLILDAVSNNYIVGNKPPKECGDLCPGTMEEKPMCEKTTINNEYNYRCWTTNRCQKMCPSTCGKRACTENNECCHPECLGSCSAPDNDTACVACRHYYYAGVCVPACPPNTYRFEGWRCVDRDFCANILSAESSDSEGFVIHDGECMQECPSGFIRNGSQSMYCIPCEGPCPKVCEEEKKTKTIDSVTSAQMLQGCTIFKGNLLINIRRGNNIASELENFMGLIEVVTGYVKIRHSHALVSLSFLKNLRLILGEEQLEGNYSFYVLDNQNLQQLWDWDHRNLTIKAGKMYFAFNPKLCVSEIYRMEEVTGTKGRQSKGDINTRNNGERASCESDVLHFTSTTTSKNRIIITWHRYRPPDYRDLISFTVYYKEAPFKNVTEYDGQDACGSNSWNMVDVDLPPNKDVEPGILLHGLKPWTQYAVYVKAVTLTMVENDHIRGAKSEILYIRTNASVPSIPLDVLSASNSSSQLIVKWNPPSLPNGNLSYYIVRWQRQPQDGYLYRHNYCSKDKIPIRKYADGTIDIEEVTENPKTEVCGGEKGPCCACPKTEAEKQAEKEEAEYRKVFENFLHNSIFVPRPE
T1 sequence (P08069 741-1367 limits assumed): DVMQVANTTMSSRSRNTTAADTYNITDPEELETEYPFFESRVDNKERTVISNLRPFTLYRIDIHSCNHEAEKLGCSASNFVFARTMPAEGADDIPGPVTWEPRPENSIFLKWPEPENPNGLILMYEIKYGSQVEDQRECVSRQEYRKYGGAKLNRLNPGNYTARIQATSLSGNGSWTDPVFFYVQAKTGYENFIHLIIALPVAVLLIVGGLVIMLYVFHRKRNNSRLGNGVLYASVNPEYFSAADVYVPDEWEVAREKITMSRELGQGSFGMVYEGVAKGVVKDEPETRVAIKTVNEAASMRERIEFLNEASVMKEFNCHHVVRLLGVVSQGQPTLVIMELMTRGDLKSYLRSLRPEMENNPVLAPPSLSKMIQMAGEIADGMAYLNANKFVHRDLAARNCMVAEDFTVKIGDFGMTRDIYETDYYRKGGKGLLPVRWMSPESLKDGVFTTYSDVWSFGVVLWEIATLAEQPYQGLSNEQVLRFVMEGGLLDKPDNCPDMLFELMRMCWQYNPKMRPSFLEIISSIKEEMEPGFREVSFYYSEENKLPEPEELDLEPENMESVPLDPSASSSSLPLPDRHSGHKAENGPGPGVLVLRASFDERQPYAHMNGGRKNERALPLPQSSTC

As to `Cc1cc(N2CCOCC2)cc2[nH]c(-c3c(NCCn4nccc4C)cc[nH]c3=O)nc12`, the IC50 in data set [1] came to 270 nM; in data set [2], 542 nM. Besides, in data set [3], the AUC stood at 5.2 µM·h.
The compound `Cc1cc(N2CCOCC2)cc2[nH]c(-c3c(NCCc4ncn(C)c4Cl)cc[nH]c3=O)nc12` displayed an area under the curve (AUC) in data set [3] of 8.2 µM·h.
The same measure, in the same setting: the value for `Cc1nn(CCNc2cc[nH]c(=O)c2-c2nc3c(C)cc(N4CCOCC4)cc3[nH]2)cc1Br` was 132 µM·h; that for `Cc1cc(N2CCOCC2)cc2[nH]c(-c3c(NCCn4cc(Br)c(CO)n4)cc[nH]c3=O)nc12` was 2 µM·h; that for `CCn1cnc(CCNc2cc[nH]c(=O)c2-c2nc3c(C)cc(N4CCOCC4)cc3[nH]2)c1Cl` was 50.9 µM·h.
Same read-out and setting: in the case of `Cc1cc(N2CCOCC2)cc2[nH]c(-c3c(NCCc4nc(C)n(C)c4Cl)cc[nH]c3=O)nc12` it was 36 µM·h.
Take `CCn1cnc(CCNc2cc[nH]c(=O)c2-c2nc3c(C)cc(N4CCOCC4)cc3[nH]2)c1Br`: the IC50 is 172 nM in data set [1] and 284 nM in data set [2].
`Cc1cc(N2CCOCC2)cc2[nH]c(-c3c(NC[C@@H](O)c4cccc(Cl)c4)cc[nH]c3=O)nc12` yielded a PB in data set [4] of 99.6%. Moreover, in data set [5], the fraction unbound is less than 0.001. For the same compound, in data set [3], the AUC is 50.9 µM·h.
Regarding `CCOC(=O)c1cnn(CCNc2cc[nH]c(=O)c2-c2nc3c(C)cc(N4CCOCC4)cc3[nH]2)c1`, the AUC in data set [3] was 4.9 µM·h.
The same measure, in the same setting: the value for `Cc1cc(N2CCOCC2)cc2[nH]c(-c3c(NCCc4cn(C)cn4)cc[nH]c3=O)nc12` was 3.8 µM·h; that for `Cc1cc(N2CCOCC2)cc2[nH]c(-c3c(NCCc4nc(Cl)n(C)c4Cl)cc[nH]c3=O)nc12` was 32.2 µM·h.
Still for that read-out and setting: the value for `Cc1cc(N2CCOCC2)cc2[nH]c(-c3c(NCCn4cccn4)cc[nH]c3=O)nc12` was 1.6 µM·h; that for `COC(=O)c1cnn(CCNc2cc[nH]c(=O)c2-c2nc3c(C)cc(N4CCOCC4)cc3[nH]2)c1` was 14.1 µM·h.
`Cc1ccn(CCNc2cc[nH]c(=O)c2-c2nc3c(C)cc(N4CCOCC4)cc3[nH]2)n1`: the values for the concentration for half-maximal inhibition (IC50) in data set [1] and in data set [2] were 290 nM and 422 nM, respectively. This compound displayed an AUC in data set [3] of 1.2 µM·h.
In data set [3], `Cc1cc(N2CCOCC2)cc2[nH]c(-c3c(NCCn4ncc(Br)c4C)cc[nH]c3=O)nc12` returned an area under the curve (AUC) of 33 µM·h.
In turn, `Cc1cnn(CCNc2cc[nH]c(=O)c2-c2nc3c(C)cc(N4CCOCC4)cc3[nH]2)c1` registered an AUC in data set [3] of 2.7 µM·h.
Take `Cc1nn(CCNc2cc[nH]c(=O)c2-c2nc3c(C)cc(N4CCOCC4)cc3[nH]2)cc1Cl`: in data set [3], the AUC is 57.8 µM·h.
Still for that read-out and setting: the value for `Cc1cc(N2CCOCC2)cc2[nH]c(-c3c(NCCn4cc(Cl)cn4)cc[nH]c3=O)nc12` was 90.3 µM·h.

A word on the IC50: it is the point on the concentration scale where inhibition reaches its midpoint. Broadly, the AUC is the area under the concentration-time curve, a measure of exposure. Lower therefore signals less exposure.
